Species on record: Rattus norvegicus
Experiment: DrugMatrix - Regimen: Daily Repeat
Assay type: toxicity, organism-based, Sprague-Dawley
Design: regimen Daily Repeat, gender Male, age 6-8 weeks
Conditions: in vivo, po, route oral GAVAGE, vehicle 100 % WATER; for ABSOLUTE BASOPHIL / ABSOLUTE EOSINOPHIL / ABSOLUTE LYMPHOCYTE / ABSOLUTE MONOCYTE / ABSOLUTE SEGMENTED NEUTROPHIL / BASOPHIL / EOSINOPHIL / ERYTHROCYTE COUNT / HEMATOCRIT / HEMOGLOBIN / LEUKOCYTE COUNT / LYMPHOCYTE / MEAN CORPUSCULAR HEMOGLOBIN / MEAN CORPUSCULAR HEMOGLOBIN CONCENTRATION / MEAN CORPUSCULAR VOLUME / MONOCYTE / NEUTROPHIL / NUCLEATED RED BLOOD CELLS / PLATELET COUNT: tissue Blood; for ALANINE AMINOTRANSFERASE / ALBUMIN / ALKALINE PHOSPHATASE / ASPARTATE AMINOTRANSFERASE / BLOOD UREA NITROGEN / CARBON DIOXIDE / CHLORIDE / CHOLESTEROL / CREATINE PHOSPHOKINASE / CREATININE / GLUCOSE / LACTATE DEHYDROGENASE / LIPASE / PHOSPHORUS / POTASSIUM / SODIUM / TOTAL BILIRUBIN / TOTAL PROTEIN / URIC ACID: tissue Plasma
[1] = 0 mg/kg, 72 h, dose level Control, time 3 day
[2] = 0 mg/kg, 120 h, dose level Control, time 5 day
[3] = 1 mg/kg, 72 h, dose level Low, time 3 day

## CN1C2CCCC1CC(NC(=O)c1nn(C)c3ccccc13)C2 (centres undefined) [GRANISETRON]
[1]
  ABSOLUTE BASOPHIL: 0 CELLS/uL
  ABSOLUTE EOSINOPHIL: 0 CELLS/uL
  ABSOLUTE LYMPHOCYTE: 8482.5 CELLS/uL
  ABSOLUTE MONOCYTE: 63.83 CELLS/uL
  ABSOLUTE SEGMENTED NEUTROPHIL: 887 CELLS/uL
  BASOPHIL: 0%
  EOSINOPHIL: 0%
  ERYTHROCYTE COUNT: 5.49 x10E6/uL
  HEMATOCRIT: 34.5%
  HEMOGLOBIN: 13.33 G/DL
  LEUKOCYTE COUNT: 9.43 x10E3/uL
  LYMPHOCYTE: 90.17%
  MEAN CORPUSCULAR HEMOGLOBIN: 24.3 pg
  MEAN CORPUSCULAR HEMOGLOBIN CONCENTRATION: 38.63 G/DL
  MEAN CORPUSCULAR VOLUME: 62.88 fL
  MONOCYTE: 0.67%
  NEUTROPHIL: 9.17%
  NUCLEATED RED BLOOD CELLS: 0.67 /100WBC
  PLATELET COUNT: 1022.83 x10E3/uL
  ALANINE AMINOTRANSFERASE: 50.5 u/L
  ALBUMIN: 4.08 G/DL
  ALKALINE PHOSPHATASE: 368.33 u/L
  ASPARTATE AMINOTRANSFERASE: 87.5 u/L
  BLOOD UREA NITROGEN: 12.83 mg/dL
  CARBON DIOXIDE: 32.83 mmol/L
  CHLORIDE: 99.67 MEQ/L
  CHOLESTEROL: 79.67 mg/dL
  CREATINE PHOSPHOKINASE: 585 u/L
  CREATININE: 0.22 mg/dL
  GLUCOSE: 135.67 mg/dL
  LACTATE DEHYDROGENASE: 171 u/L
  LIPASE: 9.5 u/L
  PHOSPHORUS: 11.18 mg/dL
  POTASSIUM: 6.25 MEQ/L
  SODIUM: 144.87 MEQ/L
  TOTAL BILIRUBIN: 0.2 mg/dL
  TOTAL PROTEIN: 6.08 G/DL
  URIC ACID: 0.65 mg/dL
[2]
  ABSOLUTE BASOPHIL: 0 CELLS/uL
  ABSOLUTE EOSINOPHIL: 14.5 CELLS/uL
  ABSOLUTE LYMPHOCYTE: 7596.17 CELLS/uL
  ABSOLUTE MONOCYTE: 69.67 CELLS/uL
  ABSOLUTE SEGMENTED NEUTROPHIL: 503 CELLS/uL
  BASOPHIL: 0%
  EOSINOPHIL: 0.17%
  ERYTHROCYTE COUNT: 5.49 x10E6/uL
  HEMATOCRIT: 34.72%
  HEMOGLOBIN: 13.47 G/DL
  LEUKOCYTE COUNT: 8.18 x10E3/uL
  LYMPHOCYTE: 92.17%
  MEAN CORPUSCULAR HEMOGLOBIN: 24.57 pg
  MEAN CORPUSCULAR HEMOGLOBIN CONCENTRATION: 38.82 G/DL
  MEAN CORPUSCULAR VOLUME: 63.3 fL
  MONOCYTE: 1%
  NEUTROPHIL: 6.67%
  NUCLEATED RED BLOOD CELLS: 0 /100WBC
  PLATELET COUNT: 1141 x10E3/uL
  ALANINE AMINOTRANSFERASE: 48.33 u/L
  ALBUMIN: 4.07 G/DL
  ALKALINE PHOSPHATASE: 395.67 u/L
  ASPARTATE AMINOTRANSFERASE: 85.67 u/L
  BLOOD UREA NITROGEN: 15.83 mg/dL
  CARBON DIOXIDE: 31.33 mmol/L
  CHLORIDE: 100.83 MEQ/L
  CHOLESTEROL: 62.33 mg/dL
  CREATINE PHOSPHOKINASE: 248.33 u/L
  CREATININE: 0.2 mg/dL
  GLUCOSE: 135.67 mg/dL
  LACTATE DEHYDROGENASE: 141.33 u/L
  LIPASE: 9.5 u/L
  PHOSPHORUS: 10.73 mg/dL
  POTASSIUM: 6.07 MEQ/L
  SODIUM: 145.35 MEQ/L
  TOTAL BILIRUBIN: 0.22 mg/dL
  TOTAL PROTEIN: 6.12 G/DL
  URIC ACID: 0.63 mg/dL
[3]
  ABSOLUTE BASOPHIL: 0 CELLS/uL
  ABSOLUTE EOSINOPHIL: 35.67 CELLS/uL
  ABSOLUTE LYMPHOCYTE: 7674 CELLS/uL
  ABSOLUTE MONOCYTE: 0 CELLS/uL
  ABSOLUTE SEGMENTED NEUTROPHIL: 690.33 CELLS/uL
  BASOPHIL: 0%
  EOSINOPHIL: 0.33%
  ERYTHROCYTE COUNT: 5.55 x10E6/uL
  HEMATOCRIT: 33.93%
  HEMOGLOBIN: 12.9 G/DL
  LEUKOCYTE COUNT: 8.4 x10E3/uL
  LYMPHOCYTE: 92%
  MEAN CORPUSCULAR HEMOGLOBIN: 23.3 pg
  MEAN CORPUSCULAR HEMOGLOBIN CONCENTRATION: 38.03 G/DL
  MEAN CORPUSCULAR VOLUME: 61.3 fL
  MONOCYTE: 0%
  NEUTROPHIL: 7.67%
  NUCLEATED RED BLOOD CELLS: 0.33 /100WBC
  PLATELET COUNT: 1023.67 x10E3/uL
  ALANINE AMINOTRANSFERASE: 49 u/L
  ALBUMIN: 4 G/DL
  ALKALINE PHOSPHATASE: 371 u/L
  ASPARTATE AMINOTRANSFERASE: 82.67 u/L
  BLOOD UREA NITROGEN: 11.67 mg/dL
  CARBON DIOXIDE: 34 mmol/L
  CHLORIDE: 99.33 MEQ/L
  CHOLESTEROL: 76.33 mg/dL
  CREATINE PHOSPHOKINASE: 380.33 u/L
  CREATININE: 0.29 mg/dL
  GLUCOSE: 141.67 mg/dL
  LACTATE DEHYDROGENASE: 138.33 u/L
  LIPASE: 12 u/L
  PHOSPHORUS: 10.8 mg/dL
  POTASSIUM: 5.77 MEQ/L
  SODIUM: 145.17 MEQ/L
  TOTAL BILIRUBIN: 0.1 mg/dL
  TOTAL PROTEIN: 5.83 G/DL
  URIC ACID: 0.57 mg/dL

Source: ChEMBL document CHEMBL3885881, “DrugMatrix”
